Calls of active or inactive are those of the source. No cut-off for these calls is given here.
Legend:
[1] = Phototoxicity in ICR mouse assessed as back skin weight at 1 mg/kg, iv followed by 10 mW/cm2 light irradiation for 10 mins at 1 day after drug challenge and measured after 1 day of light irradiation by H and E staining based microscopic analysis (reference value: 34.3 +/- 2.1 mg); format: organism-based; settings: in vivo, 48 h, time 2 day
[2] = Phototoxicity in ICR mouse assessed as tail weight at 1 mg/kg, iv followed by 10 mW/cm2 light irradiation for 10 mins at 1 day after drug challenge and measured after 1 day of light irradiation by H and E staining based microscopic analysis (reference value: 115.6 +/- 5.6 mg); format: organism-based; settings: in vivo, 48 h, time 2 day
[3] = Phototoxicity in ICR mouse assessed as skin erythema at 1 mg/kg, iv followed by 10 mW/cm2 light irradiation for 10 mins at 1 day after drug challenge and measured after 1 day of light irradiation by H and E staining based microscopic analysis; format: organism-based; settings: in vivo, 48 h, time 2 day
[4] = Phototoxicity in ICR mouse assessed as ear weight at 1 mg/kg, iv followed by 10 mW/cm2 light irradiation for 10 mins at 1 day after drug challenge and measured after 1 day of light irradiation by H and E staining based microscopic analysis (reference value: 12.4 +/- 1.5 mg); format: organism-based; settings: in vivo, 48 h, time 2 day
[5] = Phototoxicity in ICR mouse assessed as ear swelling at 1 mg/kg, iv followed by 10 mW/cm2 light irradiation for 10 mins at 1 day after drug challenge and measured after 1 day of light irradiation by H and E staining based microscopic analysis; format: organism-based; settings: in vivo, 48 h, time 2 day
[6] = Photodynamic antitumor activity against human QBC939 cells xenografted in BALB/c nude mouse assessed as tumor weight at 1 mg/kg, iv followed by laser light irradiation at 120 J/cm2 measured after 13 days; format: functional; settings: time 13 day
[7] = Phototoxicity in ICR mouse assessed as neck skin weight at 1 mg/kg, iv followed by 10 mW/cm2 light irradiation for 10 mins at 1 day after drug challenge and measured after 1 day of light irradiation by H and E staining based microscopic analysis (reference value: 36.5 +/- 2.4 mg); format: organism-based; settings: in vivo, 48 h, time 2 day
[8] = tested on: QBC939; assay: Photodynamic antitumor activity against human QBC939 cells xenografted in BALB/c nude mouse assessed as decrease in tumor weight at 1 mg/kg, iv under dark condition measured after 13 days; format: functional, organism-based; settings: time 13.0 day
[9] = Phototoxicity in ICR mouse assessed as skin swelling at 1 mg/kg, iv followed by 10 mW/cm2 light irradiation for 10 mins at 1 day after drug challenge and measured after 1 day of light irradiation by H and E staining based microscopic analysis; format: organism-based; settings: in vivo, 48 h, time 2 day
[10] = tested on: QBC939; assay: Photodynamic antitumour activity against human QBC939 cells xenografted in BABL/c nude mouse assessed as increase in apoptotic cells at 1 mg/kg, iv measured after 1 day of light irradiation by TUNEL assay; format: functional, organism-based
[11] = Phototoxicity against human QBC939 cells assessed as reduction in cell viability irradiated with 1 J/cm2 of 650 nanometer laser light preincubated for 24 hrs in dark and measured after 24 hrs by MTT assay; format: functional, cell-based; settings: QBC939, light or radiation study
[12] = Dark toxicity in human QBC939 cells assessed as reduction in cell viability incubated under dark for 24 hrs measured after 24 hrs by MTT assay; format: cell-based; settings: read-out: TC50
[13] = Phototoxicity against human QBC939 cells assessed as reduction in cell viability irradiated with 2 J/cm2 of 650 nanometer laser light preincubated for 24 hrs in dark and measured after 24 hrs by MTT assay; format: functional, cell-based; settings: QBC939, light or radiation study
[14] = Phototoxicity in ICR mouse assessed as dermal inflammation 1 mg/kg, iv in presence of 10 mW/cm2 light irradiation for 10 mins at 1 day after drug challenge and measured after 1 day of light irradiation by H and E staining based microscopic analysis; format: organism-based; settings: in vivo, 48 h, time 2 day
[15] = Phototoxicity against human QBC939 cells assessed as reduction in cell viability irradiated with 4 J/cm2 of 650 nanometer laser light preincubated for 24 hrs in dark and measured after 24 hrs by MTT assay; format: functional, cell-based; settings: QBC939, light or radiation study
[16] = Absorption property of the compound in DMSO assessed as Q band maximum absorption wavelength by UV-visible spectrophotometric method; format: physicochemical
[17] = Induction of apoptosis in human QBC939 cells assessed as viable cells at 2 uM in presence of 2J/cm2 light irradiation measured after 24 hrs by annexin V-FITC and propidium iodide staining based flow cytometric analysis (reference value: 99.6 %); format: functional; settings: QBC939, light or radiation study, read-out: Activity
[18] = Induction of apoptosis in human QBC939 cells assessed as early apoptotic cells at 2 uM by annexin V-FITC and propidium iodide staining based flow cytometric analysis (reference value: 0.01 %); format: functional
[19] = Induction of apoptosis in human QBC939 cells assessed as late apoptotic cells at 2 uM by annexin V-FITC and propidium iodide staining based flow cytometric analysis; format: functional
[20] = Drug uptake in human QBC939 cells at 4 uM by fluorescence spectrophotometer analysis; format: ADME, cell-based; settings: qbc939, 4 µM
[21] = Absorption property of compound in poly-oxyethylene castor oil and PBS assessed as Q band log absorption coefficient by UV-visible spectrophotometric method; format: physicochemical; settings: buffer
[22] = Induction of apoptosis in human QBC939 cells assessed as late apoptotic cells at 2 uM in presence of 2J/cm2 light irradiation measured after 2 hrs by annexin V-FITC and propidium iodide staining based flow cytometric analysis (reference value: 0.01 %); format: functional
[23] = Induction of apoptosis in human QBC939 cells assessed as early apoptotic cells at 2 uM in presence of 2J/cm2 light irradiation measured after 2 hrs by annexin V-FITC and propidium iodide staining based flow cytometric analysis (reference value: 0.01 %); format: functional
[24] = Induction of apoptosis in human QBC939 cells assessed as necrotic cells at 2 uM by annexin V-FITC and propidium iodide staining based flow cytometric analysis; format: functional
[25] = Induction of apoptosis in human QBC939 cells assessed as necrotic cells at 2 uM in presence of 2J/cm2 light irradiation measured after 2 hrs by annexin V-FITC and propidium iodide staining based flow cytometric analysis (reference value: 0.02 %); format: functional
[26] = Phototoxicity in ICR mouse assessed as pathological changes 1 mg/kg, iv in presence of 10 mW/cm2 light irradiation for 10 mins at 1 day after drug challenge and measured after 1 day of light irradiation by H and E staining based microscopic analysis; format: organism-based; settings: in vivo, 48 h, time 2 day
[27] = Absorption property of the compound in DMF assessed as Q band log absorption coefficient by UV-visible spectrophotometric method; format: physicochemical
[28] = Drug uptake in mouse assessed as drug level in plasma at 1 mg/kg, iv measured upto 24 hrs by fluorometric method; format: ADME, organism-based; settings: in vivo
[29] = Induction of apoptosis in human QBC939 cells assessed as late apoptotic cells at 2 uM in presence of 2J/cm2 light irradiation measured after 24 hrs by annexin V-FITC and propidium iodide staining based flow cytometric analysis (reference value: 0.01 %); format: functional
[30] = Induction of apoptosis in human QBC939 cells assessed as viable cells at 2 uM by annexin V-FITC and propidium iodide staining based flow cytometric analysis (reference value: 99.99 %); format: functional; settings: read-out: Activity
[31] = Drug localization in lysosome of human QBC939 cells at 4 uM incubated for 4 hrs in dark by lyso-tracker blue based confocal microscopic method; format: ADME, subcellular; settings: qbc939, 4 h
[32] = Emission property of compound in poly-oxyethylene castor oil and PBS assessed as Q band emission wavelength by […]; format: physicochemical; settings: buffer
[33] = Absorption property of the compound in DMF assessed as Q band maximum absorption wavelength by UV-visible spectrophotometric method; format: physicochemical
[34] = Induction of singlet oxygen generation in DMF solution irradiated with 650 nanometer laser light in every 1 min by ESR assay; format: functional
[35] = Drug uptake in nude mouse xenografted with QBC939 cells assessed as drug level in tumor tissue at 1 mg/kg, iv measured after 8 hrs by fluorescence imaging assay; format: ADME, organism-based, Neoplasm; settings: in vivo
[36] = Induction of apoptosis in human QBC939 cells assessed as viable cells at 2 uM in presence of 2J/cm2 light irradiation measured after 2 hrs by annexin V-FITC and propidium iodide staining based flow cytometric analysis (reference value: 99.6 %); format: functional; settings: QBC939, light or radiation study, read-out: Activity
[37] = Induction of apoptosis in human QBC939 cells assessed as necrotic cells at 2 uM in presence of 2J/cm2 light irradiation measured after 24 hrs by annexin V-FITC and propidium iodide staining based flow cytometric analysis (reference value: 0.02 %); format: functional
[38] = Emission property of compound in DMF assessed as Q band emission wavelength by […]; format: physicochemical
[39] = Emission property of compound in DMSO assessed as Q band emission wavelength by […]; format: physicochemical
[40] = Absorption property of compound in poly-oxyethylene castor oil and PBS assessed as Q band maximum absorption wavelength by UV-visible spectrophotometric method; format: physicochemical; settings: buffer
[41] = Induction of apoptosis in human QBC939 cells assessed as early apoptotic cells at 2 uM in presence of 2J/cm2 light irradiation measured after 24 hrs by annexin V-FITC and propidium iodide staining based flow cytometric analysis (reference value: 0.01 %); format: functional
[42] = Drug localization in nucleus of human QBC939 cells at 4 uM incubated for 4 hrs in dark by Hoechst 33342 based confocal microscopic method; format: ADME, subcellular; settings: qbc939, 4 h
[43] = Drug localization in mitochondria of human QBC939 cells at 4 uM incubated for 4 hrs in dark by mito-tracker green based confocal microscopic method; format: ADME; settings: qbc939, 4 h
[44] = Absorption property of the compound in DMSO assessed as Q band log absorption coefficient by UV-visible spectrophotometric method; format: physicochemical
[45] = Drug uptake in nude mouse xenografted with QBC939 cells assessed as drug level in tumor tissue at 1 mg/kg, iv measured after 24 hrs by fluorescence imaging assay; format: ADME, organism-based, Neoplasm; settings: in vivo
[46] = Induction of singlet oxygen generation in DMSO assessed as bleaching rate at 10 uM under 650 nanometer light irradiation; format: functional

Oc1cccc(-c2c3nc(c(-c4cccc(O)c4)c4ccc([nH]4)c(-c4cccc(O)c4)c4nc(c(-c5cccc(O)c5)c5ccc2[nH]5)CC4)C=C3)c1 [TEMOPORFIN]
Activity [1]: 39.2 mg
Activity [2]: 120.4 mg
Activity [3]: Toxic
Activity [4]: 15.6 mg
Activity [5]: Toxic
Activity [6]: 35%
Activity [7]: 42.7 mg
Activity [8]: inactive
Activity [9]: Toxic
Activity [10]: Active
IC50 [11]: 2960 nM
CC50 at 48 h [12]: 6080 nM
IC50 [13]: 1460 nM
Activity [14]: Toxic
IC50 [15]: 630 nM

COC(=O)C1(C(=O)NCCO)C2c3nc(c(-c4ccccc4)c4ccc([nH]4)c(-c4ccccc4)c4nc(c(-c5ccccc5)c5ccc([nH]5)c3-c3ccccc3)C=C4)C21 (configuration not stated)
Activity [16]: 654 nm
viability at 2 µM [17]: 25.6%
Activity [18]: 1.65%
Activity [19]: 2.32%
Drug uptake [20]: Active
Activity [1]: 35.3 mg
Activity [21]: 3.34
Activity [2]: 114.9 mg
Activity [22]: 4.9%
Activity [23]: 2.1%
Activity [24]: 0.96%
Activity [4]: 13.2 mg
Activity [6]: 17%
Activity [25]: 17.07%
Activity [26]: Non-Toxic
Activity [27]: 4.03
Activity [7]: 38.1 mg
Drug uptake [28]: Active
Activity [29]: 44.9%
viability at 2 µM [30]: 95.1%
Drug uptake [31]: Active
Activity [32]: 655 nm
Activity [33]: 652 nm
Activity [34]: Active
Activity [8]: inactive
Drug uptake [35]: Active
viability at 2 µM [36]: 75.9%
Activity [37]: 9.7%
Activity [38]: 652 nm
Activity [39]: 650 nm
Activity [40]: 650 nm
Activity [10]: Active
Activity [41]: 19.8%
IC50 [11]: 3410 nM
CC50 at 48 h [12]: > 8000 nM
Drug uptake [42]: Not Active
Drug uptake [43]: Active
IC50 [13]: 1920 nM
Activity [44]: 4
Drug uptake [45]: Active
Activity [46]: Active
IC50 [15]: 1170 nM
